From US12441733B2, “Substituted 2,4-dioxotetrahydropyrimidines as intermediates in the synthesis of bruton's tyrosine kinase inhibitors” (Novartis AG, priority 2018, dated 2025)

Columns and labels:
Assay type in all cases: cell-based
[1] = system: TMD8 cells; test: Resazurin cell viability (proliferation) assay in TMD8 DLBCL cells; conditions: Homo sapiens, TMD8 cells (BTK dependent), 72 h, 50% growth inhibition vs vehicle, read-out: TMD8 Prol GI50
Experimental: (§1) Compounds of the invention were tested in the following cellular assays. The terms in Table 2 are defined as follows: DC50 refers to the concentration at which 50% maximal degradation was observed; deg Amax is the extent of degradation and the value refers to the % protein remaining at the concentration at which maximum degradation is seen; ProI GI50 refers to the proliferation data and defines the concentration at which 50% growth inhibition was observed compared to the vehicle treated control at the end of the incubation time. TMD8 cells are BTK dependent and OCI-LY3 cells are BTK independent.
(§2) Cell Viability Assay in DLBCL (Diffuse Large B-Cell Lymphoma) Cells:
(§3) The effect of the BTK compounds on cell proliferation was measured by a Resazurin (Sigma, #R7017) based cell viability assay. TMD8 (BTK compound sensitive) and OCI-LY3 (BTK compound insensitive) cells were incubated for 72 h at 37° C. and 5% CO2 with the corresponding compound, Resazurin is a non-toxic, cell-permeable substrate that is virtually non-fluorescent. Upon entering living cells, Resazurin (Sigma, #R7017) is reduced to highly fluorescent Resorufin. The metabolic activity was assessed by measuring the fluorescence signal (ex. 530 nm; em. 600 nm).
(§4) TMD8 and OCI-Ly3 cells were seeded at day 0 in triplicates at a cell density of 1×10^4 cells per 150 μl/well in a 96-well plate (Costar #3904). Additional plates were prepared, in order to assess the basal metabolic activity of both cell lines at the beginning of the experiment. For these reference plates, Resazurin (Sigma, #R7017) was added to a final concentration of 13 μg/ml 3 h post seeding and was incubated for 2 h at 37° C. and 5% CO2. Following incubation, the fluorescent signal intensity of the 96-well plates was measured on a Mithras LB940 multimode plate reader at 530/600 nm (Berthold Technologies, Germanyl).
(§5) In parallel, 3 h post-seeding, test-plates were treated with compound at various concentrations, or with vehicle (DMSO) alone for 3 days. The compound addition to the plates was performed by using a HP D300 digital dispenser (TECAN, Switzerland). The compounds were tested in triplicate, 8-point serial dilution (1:4), with a start concentration of 10 μM for OCI-LY3 and 1 μM for the TMD8 cells, respectively. To assess the relative proliferation of the cells, Resazurin was added to each well directly to the medium to a final concentration of 13 μg/ml. The plates were incubated for 2 h at 37° C. and 5% CO2 to result in a 72 h endpoint. Following incubation, the fluorescent signal intensity of the 96-well plates were measured on a Mithras LB940 multimode plate reader at 530/600 nm (Berthold Technologies, Germanyl). The formation of Resorufin dye directly correlates with the number of metabolically active cells. For each triplicate treatment the mean and standard deviation were calculated and analyzed via curve fitting software to determine the respective compound concentration resulting in 50% growth inhibition (GI50) values. For each compound GI50 values were typically determined from at least 2 entirely independent experiments.
TMD8 cells were acquired through a license agreement with Tokyo Medical and Dental University, Japan. Cells are cultivated in MEM Alpha (BioConcept, #1-23F01-1, lot. LB04262P) supplemented with 10% FCS (HyClone, GE #SH30066.03, lot AB3217603), 2 mM L-Glutamine (BioConcept, #5-10K50-H, lot. LA03467P), 1% Pen/Strep (BioConcept, #4-01F00-H, lot. LB04235P).

[2] = target: T1, BTK-GFP (Homo sapiens, UniProt Q06187+Q96SW2); test: BTK-GFP protein abundance flow cytometry assay in HEK293A cells; conditions: HEK293A BTK-GFP-iresRFP cells, 24 h; for DC50: GFP signal by flow cytometry, concentration at which 50% maximal degradation was observed; for BTK deg Amax: % protein remaining at the concentration at which maximum degradation is seen
T1 construct: expressed in transfected cells; host or cells: HEK293A (Invitrogen R70507), lentiviral transduction with pLenti6-BTK-GFP-Ires-RFP, blasticidin selection
T1 sequence (Q06187 whole entry): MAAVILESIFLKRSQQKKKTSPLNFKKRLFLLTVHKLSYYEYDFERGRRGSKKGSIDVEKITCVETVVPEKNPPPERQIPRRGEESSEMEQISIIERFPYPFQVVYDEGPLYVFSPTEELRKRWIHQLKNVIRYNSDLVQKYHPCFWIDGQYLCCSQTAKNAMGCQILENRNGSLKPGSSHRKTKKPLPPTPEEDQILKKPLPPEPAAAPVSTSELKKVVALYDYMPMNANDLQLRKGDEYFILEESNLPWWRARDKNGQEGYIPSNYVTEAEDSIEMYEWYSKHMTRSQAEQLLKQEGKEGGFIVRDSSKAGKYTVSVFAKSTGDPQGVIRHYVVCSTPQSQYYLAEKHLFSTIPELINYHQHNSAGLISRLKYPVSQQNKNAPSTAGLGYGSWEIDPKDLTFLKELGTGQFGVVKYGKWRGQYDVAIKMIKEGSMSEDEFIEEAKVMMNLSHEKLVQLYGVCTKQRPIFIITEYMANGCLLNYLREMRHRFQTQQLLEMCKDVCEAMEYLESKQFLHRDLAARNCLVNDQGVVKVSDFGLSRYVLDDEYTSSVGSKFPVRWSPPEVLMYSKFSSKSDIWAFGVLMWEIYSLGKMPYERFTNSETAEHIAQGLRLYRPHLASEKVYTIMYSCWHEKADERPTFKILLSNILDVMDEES
T1 sequence (Q96SW2 whole entry): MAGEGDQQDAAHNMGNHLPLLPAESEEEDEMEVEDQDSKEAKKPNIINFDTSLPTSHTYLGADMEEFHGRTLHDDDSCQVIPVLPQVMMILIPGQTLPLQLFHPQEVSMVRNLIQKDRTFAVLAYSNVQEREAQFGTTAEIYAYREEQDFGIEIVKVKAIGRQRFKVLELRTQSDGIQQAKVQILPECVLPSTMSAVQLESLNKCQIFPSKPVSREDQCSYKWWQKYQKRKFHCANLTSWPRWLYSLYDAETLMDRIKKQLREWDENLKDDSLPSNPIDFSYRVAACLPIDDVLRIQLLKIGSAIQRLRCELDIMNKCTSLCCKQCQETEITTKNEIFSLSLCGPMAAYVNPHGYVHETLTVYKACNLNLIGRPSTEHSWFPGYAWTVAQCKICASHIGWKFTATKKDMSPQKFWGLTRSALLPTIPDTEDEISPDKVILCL
T1 sequence (Q16531 whole entry partner): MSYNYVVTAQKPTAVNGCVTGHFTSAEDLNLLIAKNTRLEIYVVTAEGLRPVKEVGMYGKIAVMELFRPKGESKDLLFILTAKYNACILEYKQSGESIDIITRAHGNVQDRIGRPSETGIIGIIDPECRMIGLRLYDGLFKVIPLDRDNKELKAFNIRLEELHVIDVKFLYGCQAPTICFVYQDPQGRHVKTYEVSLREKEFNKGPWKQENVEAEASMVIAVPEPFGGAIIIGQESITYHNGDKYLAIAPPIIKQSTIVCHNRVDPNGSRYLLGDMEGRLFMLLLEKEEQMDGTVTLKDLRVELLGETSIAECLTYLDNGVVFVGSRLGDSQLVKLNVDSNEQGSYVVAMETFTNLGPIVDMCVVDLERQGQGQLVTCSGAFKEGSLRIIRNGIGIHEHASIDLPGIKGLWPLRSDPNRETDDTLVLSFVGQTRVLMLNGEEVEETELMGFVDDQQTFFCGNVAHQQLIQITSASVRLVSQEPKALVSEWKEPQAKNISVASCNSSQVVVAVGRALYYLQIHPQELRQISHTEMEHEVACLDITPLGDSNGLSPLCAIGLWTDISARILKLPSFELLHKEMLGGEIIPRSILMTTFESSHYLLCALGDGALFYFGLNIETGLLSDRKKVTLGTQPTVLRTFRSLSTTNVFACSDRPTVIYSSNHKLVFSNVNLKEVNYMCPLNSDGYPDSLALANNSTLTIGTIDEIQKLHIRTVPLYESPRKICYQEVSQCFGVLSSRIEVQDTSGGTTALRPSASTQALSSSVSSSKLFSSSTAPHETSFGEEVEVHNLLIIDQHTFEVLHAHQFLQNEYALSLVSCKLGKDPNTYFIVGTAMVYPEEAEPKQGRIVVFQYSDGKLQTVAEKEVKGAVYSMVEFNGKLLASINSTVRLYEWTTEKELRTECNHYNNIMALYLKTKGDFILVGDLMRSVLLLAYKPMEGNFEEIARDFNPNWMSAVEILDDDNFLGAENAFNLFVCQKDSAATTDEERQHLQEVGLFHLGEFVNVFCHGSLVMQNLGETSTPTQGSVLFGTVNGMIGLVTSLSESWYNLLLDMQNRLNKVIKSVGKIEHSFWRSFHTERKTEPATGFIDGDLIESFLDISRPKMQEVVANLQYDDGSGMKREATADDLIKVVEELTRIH
Experimental: as §1
BTK-GFP and IKZF3-GFP protein abundance flow cytometry assay in HEK293A cells:
Degradation of BTK or IKZF3 was measured in HEK293A cells (Invitrogen R70507) expressing either BTK-GFP and RFP or IKZF3-GFP and RFP from a stably integrated bicistronic BTK-GFP-iresRFP or IKZF3-GFP-iresRFP construct, respectively. Reduction of the GFP signal measured by flow cytometry served as readout for BTK or IKZF3 degradation after degrader treatment.
i) Cloning of the pLenti6-BTK-GFP-1Res-RFP and IKZF3-GFP-Ires-RFP Sensor Vectors
The bicistronic BTK-GFP-iresRFP construct is based on a pLenti6-DEST vector backbone where GFP was introduced into the unique Xho1 site downstream of the destination cassette (DEST) and RFP was cloned behind an internal ribosomal entry site (Ires).
In detail, the sensor construct was engineered by replacing NanoLuciferase (NLuc) by GFP and FireFly luciferase (FF) by RFP from pLenti6-DEST-NLuc-Ires-FF.
The pLenti6-DEST-NLuc-Ires-FF sensor construct was cloned by replacing eGFP from pLenti6-DEST-ires-eGFP with a synthesized stuffer element (encoding Ires-FF with FF flanked by two Nhe1 restriction sites) using blunt end cloning replacing Ires-eGFP between the two PmII. To enable C-terminal tagging with NanoLuciferase (NLuc), NLuc was amplified from pNL1.1 (Promega #N1001) using linker primers with Xho1 sites for ligating into linearized pLenti6-DEST-Ires-FF using Xho1 digest resulting in the construct pLenti6-DEST-NLuc-Ires-FF.
The pLenti6-DEST-NLuc-Ires-FF served as base vector for cloning pLenti6-DEST-GFP-Ires-RFP using Gibson assembly to replace FF with RFP and NLuc with GFP. In a first round FF was replaced by RFP by amplifying RFP from a template using the following Gibson assembly linker primers (Gibson-Nhe1 RFPfw, […]gctagc[…] (SEQ ID NO: 1); Gibson-Nhe1 RFP-Stoprev, […]ctagc[…] (SEQ ID NO: 2)) to clone into pLenti6-DEST-NLuc-Ires-FF digested with Nhe1 and gel-purified to remove the FF fragment. The resulting pLenti6-DEST-NLuc-Ires-RFP vector served as the template to replace NLuc with GFP by amplifying GFP from a template using following Gibson assembly linker primers (Gibson-Xho1 GFPfw, […]c[…] (SEQ ID NO: 3); Gibson-Xho1 GFP-Stoprev, […] (SEQ ID NO: 4)) to clone into pLenti6-DEST-NLuc-Ires-RFP digested with Xho1 and gel-purified to remove the NLuc fragment. All Gibson assembly reactions were performed with Gibson assembly Master Mix (New England Biolabs NEB E261 IL) according to manufacturer's manual, resulting in the destination vector pLenti6-DEST-GFP-Ires-RFP to allow Gateway cloning. To enable gateway cloning and C-terminal GFP tagging of BTK, the BTK open reading frame (ORF) was first shuttled from a pcDNA-DEST40-BTK vector (Invitrogen library ID INV_20090504v1) into pDONR221 (Invitrogen 12536-017) vector using a gateway BP reaction according to the manufacturer's manual (Invitrogen 11789-013) resulting in the novel construct pENTR221-BTK. For C-terminal tagging the STOP codon was mutated to a leucine performing a mutagenesis reaction with the following primers (pENTR221-BTK Quikchange STOP-Leu fw, gtcatggatgaagaatccTTGaacccagctttcttgtac; pENTR221-BTK Quikchange STOP-Leu REVC, gtacaagaaagctgggttCAAggattcttcatccatgac) using the QuikChange Lightning mutagenesis kit (Agilent Technologies #210518) according to the manufacturer's manual, resulting in pENTR221-BTK (STOP-Leu). […]

[3] = system: OCI-LY3 cells; test: Resazurin cell viability (proliferation) assay in OCI-LY3 DLBCL cells; conditions: Homo sapiens, OCI-LY3 cells (BTK independent), 72 h, 50% growth inhibition vs vehicle, read-out: OCI-LY3 Prol GI50
Experimental: as §1, §2, §3, §4, §5
OCI-LY3 cells were acquired through a license agreement with University Health Network, Toronto, Canada. Cells are cultivated in RPM11640 media (Gibco, #61870-010, lot. 1894759), supplemented with 10% FCS (HyClone, GE #SH30066.03, lot AB217603), 2 mM L-Glutamine (BioConcept, #5-10K50-H, lot. LA03467P), 1 mM Sodium Pyruvate (BioConcept, #5-60F00-H, lot. LB10510P), 10 mM HEPES (Gibco, #15630-056, lot. 1854074), 1% Pen/Strep (BioConcept, #4-01F00-H, lot. LB04235P).

DC50 [2] [nM] | BTK deg Amax [2] [%] | GI50 [3] [nM] | SMILES | GI50 [1] [nM]
0.7 | 2.3 | 5940 | Cc1ccc(C(=O)N2CCC(OC3CCN(CCc4ccc(-c5cc6c(-c7cc(F)cc(NC(=O)c8ccc(C(C)(C)O)cc8F)c7C)ncnc6[nH]5)cc4)CC3)CC2)cc1N1CCC(=O)NC1=O [Compound 10, N-(3-(6-(4-(2-(4-((1-(3-(2,4-Dioxotetrahydropyrimidin-1(2H)-yl)-4-methylbenzoyl)piperidin-4-yl)oxyl)piperidin-1-yl)ethyl)phenyl)-7H-pyrrolo[2,3-d]pyrimidin-4-yl)-5-fluoro-2-methylphenyl)-2-fluoro-4-(2-hydroxypropan-2-yl)benzamide] | 0.36
0.8 | 1.8 | 3390 | COc1ccc(C(=O)N2CCC(CCN3CCC(OCc4ccc(-c5cc6c(-c7cc(F)cc(NC(=O)c8ccc(C(C)(C)O)cc8F)c7C)ncnc6[nH]5)cc4)CC3)CC2)cc1N1CCC(=O)NC1=O [Compound 13, N-(3-(6-(4-(((1-(2-(1-(3-(2,4-Dioxotetrahydropyrimidin-1(2H)-yl)-4-methoxybenzoyl)piperidin-4-yl)ethyl)piperidin-4-yl)oxyl)methyl)phenyl)-7H-pyrrolo[2,3-d]pyrimidin-4-yl)-5-fluoro-2-methylphenyl)-2-fluoro-4-(2-hydroxypropan-2-yl)benzamide] | 0.18
0.4 | 1.6 | 3380 | COc1ccc(C(=O)N2CCC(CCCN3CCC(Oc4ccc(-c5cc6c(-c7cc(F)cc(NC(=O)c8ccc(C(C)(C)O)cc8F)c7C)ncnc6[nH]5)cc4)CC3)CC2)cc1N1CCC(=O)NC1=O [Compound 15, N-(3-(6-(4-((1-(3-(1-(3-(2,4-Dioxotetrahydropyrimidin-1(2H)-yl)-4-methoxybenzoyl)piperidin-4-yl)propyl)piperidin-4-yl)oxyl)phenyl)-7H-pyrrolo[2,3-d]pyrimidin-4-yl)-5-fluoro-2-methylphenyl)-2-fluoro-4-(2-hydroxypropan-2-yl)benzamide] | 0.56

The next lines start with the compound.

SMILES | DC50 [2] [nM] | BTK deg Amax [2] [%] | GI50 [3] [nM] | GI50 [1] [nM]
COc1ccc(C(=O)N2CCC3(CCN(CCCc4ccc(-c5cc6c(-c7cc(F)cc(NC(=O)c8ccc(C(C)(C)O)cc8F)c7C)ncnc6[nH]5)cc4)CC3)CC2)cc1N1CCC(=O)NC1=O [Compound 11, N-(3-(6-(4-(3-(9(3-(2,4-Dioxotetrahydropyrimidin-1(2H)-yl)-4-methoxybenzoyl)-3,9-diazaspiro[5.5]undecan-3-yl)propyl)phenyl)-7H-pyrrolo[2,3-d]pyrimidin-4-yl)-5-fluoro-2-methylphenyl)-2-fluoro-4-(2-hydroxypropan-2-yl)benzamide] | 5 | 4.7 | > 10000 | 0.84
COc1ccc(C(=O)N2CCN(CCN3CCN(Cc4ccc(-c5cc6c(-c7cc(F)cc(NC(=O)c8ccc(C(C)(C)O)cc8F)c7C)ncnc6[nH]5)cc4)CC3)CC2)cc1N1CCC(=O)NC1=O [Compound 16, N-(3-(6-(4-((4-(2-(4-(3-(2,4-Dioxotetrahydropyrimidin-1(2H)-yl)-4-methoxybenzoyl)piperazin-1-yl)ethyl)piperazin-1-yl)methyl)phenyl)-7H-pyrrolo[2,3-d]pyrimidin-4-yl)-5-fluoro-2-methylphenyl)-2-fluoro-4-(2-hydroxypropan-2-yl)benzamide] | 4.2 | 4.1 | > 10000 | 0.67
COc1ccc(C(=O)N2CCC(CCN3CCN(Cc4ccc(-c5cc6c(-c7cc(F)cc(NC(=O)c8ccc(C(C)(C)O)cc8F)c7C)ncnc6[nH]5)cc4)CC3)CC2)cc1N1CCC(=O)NC1=O [Compound 17, N-(3-(6-(4-((4-(2-(1-(3-(2,4-Dioxotetrahydropyrimidin-1(2H)-yl)-4-methoxybenzoyl)piperidin-4-yl)ethyl)piperazin-1-yl)methyl)phenyl)-7H-pyrrolo[2,3-d]pyrimidin-4-yl)-5-fluoro-2-methylphenyl)-2-fluoro-4-(2-hydroxypropan-2-yl)benzamide] | 2.3 | 11.0 | 4140 | 0.5
